Results from PubChem BioAssay (NCI).
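Assay format: 96-well plates, 48-hour exposure. The concentration for full growth arrest is given as TGI.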

How the values were obtained:
Assay in all cases: DTP human tumour cell line panel, 48 h
SNB-19 CNS = tested on: SNB-19 CNS
MOLT-4 leukemia = tested on: MOLT-4 leukemia
MALME-3M melanoma = tested on: MALME-3M melanoma
HOP-62 NSCLC = tested on: HOP-62 NSCLC
SK-MEL-5 melanoma = tested on: SK-MEL-5 melanoma
PC-3 prostate = tested on: PC-3 prostate
MCF7 breast = tested on: MCF7 breast
786-0 renal = tested on: 786-0 renal
ACHN renal = tested on: ACHN renal
OVCAR-3 ovarian = tested on: OVCAR-3 ovarian
OVCAR-8 ovarian = tested on: OVCAR-8 ovarian
K-562 leukemia = tested on: K-562 leukemia
MDA-MB-435 = tested on: MDA-MB-435
UACC-62 melanoma = tested on: UACC-62 melanoma
HT29 colon = tested on: HT29 colon
UACC-257 melanoma = tested on: UACC-257 melanoma
HL-60(TB) leukemia = tested on: HL-60(TB) leukemia
U251 CNS = tested on: U251 CNS
SR leukemia = tested on: SR leukemia
DU-145 prostate = tested on: DU-145 prostate
SK-MEL-28 melanoma = tested on: SK-MEL-28 melanoma
SK-MEL-2 melanoma = tested on: SK-MEL-2 melanoma
CAKI-1 renal = tested on: CAKI-1 renal
SK-OV-3 ovarian = tested on: SK-OV-3 ovarian
UO-31 renal = tested on: UO-31 renal
RXF 393 renal = tested on: RXF 393 renal
NCI/ADR-RES ovarian = tested on: NCI/ADR-RES ovarian
HCT-15 colon = tested on: HCT-15 colon
HS 578T breast = tested on: HS 578T breast
A549 NSCLC = tested on: A549 NSCLC
OVCAR-5 ovarian = tested on: OVCAR-5 ovarian
OVCAR-4 ovarian = tested on: OVCAR-4 ovarian
NCI-H23 lung = tested on: NCI-H23 lung
NCI-H522 lung = tested on: NCI-H522 lung
M14 melanoma = tested on: M14 melanoma
TK-10 renal = tested on: TK-10 renal
SF-268 CNS = tested on: SF-268 CNS
HCT-116 colon = tested on: HCT-116 colon
BT-549 breast = tested on: BT-549 breast
COLO 205 colon = tested on: COLO 205 colon
SNB-75 CNS = tested on: SNB-75 CNS
EKVX NSCLC = tested on: EKVX NSCLC
IGROV1 ovarian = tested on: IGROV1 ovarian
HOP-92 NSCLC = tested on: HOP-92 NSCLC
NCI-H226 lung = tested on: NCI-H226 lung
T-47D breast = tested on: T-47D breast
RPMI-8226 leukemia = tested on: RPMI-8226 leukemia
MDA-MB-231 breast = tested on: MDA-MB-231 breast
SF-295 CNS = tested on: SF-295 CNS
LOX IMVI melanoma = tested on: LOX IMVI melanoma
CCRF-CEM leukemia = tested on: CCRF-CEM leukemia
MDA-N = tested on: MDA-N
SF-539 CNS = tested on: SF-539 CNS
SW-620 colon = tested on: SW-620 colon
SN12C renal = tested on: SN12C renal
KM12 colon = tested on: KM12 colon
NCI-H460 lung = tested on: NCI-H460 lung

SMILES: FC1(F)SC2CCCCCCCCCCC2C1(F)F (stereo not given)
- TGI (SNB-19 CNS): > 100 µM
- TGI (MOLT-4 leukemia): > 100 µM
- TGI (MALME-3M melanoma): 59.6 µM
- TGI (HOP-62 NSCLC): > 100 µM
- TGI (SK-MEL-5 melanoma): > 100 µM
- TGI (PC-3 prostate): > 100 µM
- TGI (MCF7 breast): 44.2 µM
- TGI (786-0 renal): > 100 µM
- TGI (ACHN renal): 73.8 µM
- TGI (OVCAR-3 ovarian): 39.1 µM
- TGI (OVCAR-8 ovarian): > 100 µM
- TGI (K-562 leukemia): 35.3 µM
- TGI (MDA-MB-435): > 100 µM
- TGI (UACC-62 melanoma): > 100 µM
- TGI (HT29 colon): 96.5 µM
- TGI (UACC-257 melanoma): 69.8 µM
- TGI (HL-60(TB) leukemia): 30.3 µM
- TGI (U251 CNS): 63.6 µM
- TGI (SR leukemia): > 100 µM
- TGI (DU-145 prostate): > 100 µM
- TGI (SK-MEL-28 melanoma): 71 µM
- TGI (SK-MEL-2 melanoma): 39.3 µM
- TGI (CAKI-1 renal): > 100 µM
- TGI (SK-OV-3 ovarian): > 100 µM
- TGI (UO-31 renal): > 100 µM
- TGI (RXF 393 renal): 54 µM
- TGI (NCI/ADR-RES ovarian): > 100 µM
- TGI (HCT-15 colon): > 100 µM
- TGI (HS 578T breast): > 100 µM
- TGI (A549 NSCLC): > 100 µM
- TGI (OVCAR-5 ovarian): > 100 µM
- TGI (OVCAR-4 ovarian): > 100 µM
- TGI (NCI-H23 lung): 80.1 µM
- TGI (NCI-H522 lung): 52.7 µM
- TGI (M14 melanoma): > 100 µM
- TGI (TK-10 renal): > 100 µM
- TGI (SF-268 CNS): > 100 µM
- TGI (HCT-116 colon): 37.1 µM
- TGI (BT-549 breast): > 100 µM
- TGI (COLO 205 colon): 34.7 µM
- TGI (SNB-75 CNS): > 100 µM
- TGI (EKVX NSCLC): > 100 µM
- TGI (IGROV1 ovarian): > 100 µM
- TGI (HOP-92 NSCLC): 51.6 µM
- TGI (NCI-H226 lung): > 100 µM
- TGI (T-47D breast): > 100 µM
- TGI (RPMI-8226 leukemia): > 100 µM
- TGI (MDA-MB-231 breast): > 100 µM
- TGI (SF-295 CNS): > 100 µM
- TGI (LOX IMVI melanoma): 31.6 µM
- TGI (CCRF-CEM leukemia): > 100 µM
- TGI (MDA-N): > 100 µM

SMILES: C/C(=N\Nc1nc2ccccc2[nH]1)c1ccc2ccccc2n1
- TGI (SNB-19 CNS): 15.9 µM
- TGI (SF-539 CNS): 20.1 µM
- TGI (MOLT-4 leukemia): 2.64 µM
- TGI (MALME-3M melanoma): 7.85 µM
- TGI (HOP-62 NSCLC): 8.12 µM
- TGI (SK-MEL-5 melanoma): 4.5 µM
- TGI (PC-3 prostate): 5.2 µM
- TGI (MCF7 breast): 13.8 µM
- TGI (786-0 renal): 10.7 µM
- TGI (ACHN renal): 24.2 µM
- TGI (OVCAR-3 ovarian): 2.95 µM
- TGI (OVCAR-8 ovarian): > 100 µM
- TGI (K-562 leukemia): 6.72 µM
- TGI (MDA-MB-435): 17 µM
- TGI (UACC-62 melanoma): 9.25 µM
- TGI (UACC-257 melanoma): 24.9 µM
- TGI (HL-60(TB) leukemia): 5.04 µM
- TGI (U251 CNS): 14.3 µM
- TGI (SR leukemia): 0.448 µM
- TGI (DU-145 prostate): 5.88 µM
- TGI (SW-620 colon): 14.6 µM
- TGI (SK-MEL-28 melanoma): 23 µM
- TGI (SK-MEL-2 melanoma): 7.23 µM
- TGI (CAKI-1 renal): 1.54 µM
- TGI (SK-OV-3 ovarian): 38.4 µM
- TGI (UO-31 renal): 5.1 µM
- TGI (RXF 393 renal): 13.5 µM
- TGI (NCI/ADR-RES ovarian): 7.63 µM
- TGI (HCT-15 colon): 35.2 µM
- TGI (HS 578T breast): 35 µM
- TGI (A549 NSCLC): 10.2 µM
- TGI (OVCAR-5 ovarian): 10 µM
- TGI (OVCAR-4 ovarian): 10.8 µM
- TGI (SN12C renal): 7.57 µM
- TGI (KM12 colon): 14.3 µM
- TGI (NCI-H23 lung): 16.1 µM
- TGI (NCI-H522 lung): 8.85 µM
- TGI (M14 melanoma): 6.47 µM
- TGI (TK-10 renal): 13.2 µM
- TGI (SF-268 CNS): 14.3 µM
- TGI (HCT-116 colon): 7.48 µM
- TGI (BT-549 breast): > 100 µM
- TGI (COLO 205 colon): 16.2 µM
- TGI (EKVX NSCLC): 5.97 µM
- TGI (IGROV1 ovarian): 8.1 µM
- TGI (T-47D breast): 3.74 µM
- TGI (RPMI-8226 leukemia): 3.15 µM
- TGI (MDA-MB-231 breast): 12.5 µM
- TGI (SF-295 CNS): 8.29 µM
- TGI (LOX IMVI melanoma): 10.2 µM
- TGI (NCI-H460 lung): 10.4 µM
- TGI (CCRF-CEM leukemia): 3.87 µM
- TGI (MDA-N): 14.8 µM
